For data set [1], the system named is calcium channel. To be noted: known from the art; cited from earlier work.
The test system of data set [2] is dihydropyridine receptors. The data set is described as follows: stability of inhibitory activity to boiling and ashing. Type of data set: physicochemical. To be noted: 270° C. for 3 hours. From the text:
This observed differential activity was further evidence of a specific interaction with the dihydropyridine binding site rather than the non-specific reduction of free ligand concentration.
When this fraction was chromatographed on either a Waters Protein Pak-125 or a TSK-250 gel filtration column using 40% acetonitrile in 0.1% TFA as the mobile phase, the activity (as determined in ligand binding assays described in Example 1c) eluted in a volume less than […] fragment (amino acids 61-63) having a molecular weight of 443.

Data set [3] is described as follows: dialysis: binding of free [3H]DHP ligand to the fractions. To be noted: 5 mg inside bag, 0.2 nM [3H]DHP, 25° C. overnight. As for the experimental part: In order to further determine the specificity of action of a particular fraction (i.e., to insure that the fraction was acting competitively on the dihydropyridine receptor and not simply depleting the free ligand), a determination of the amount of free ligand was done by dialysis as follows.
A […] segment of Spectra-por 7 dialysis tubing (0.46 mL/cm) was washed thoroughly with water to remove EDTA and other chemicals. The molecular weight cut-off of this tubing was 1,000. Dialysis was performed in 16 mm glass tubes placed in a shaker incubator at 25° C. overnight. The volume inside the bag (made from closing the tubing by tying it) was 2.5 mL; the outside volume was 10 mL of 50 mM HEPES buffer, pH 7.0. Experiments were done with the [^3 H]DHP present both inside and outside the bag. The concentration of the [^3 H]DHP ligand used was always 0.2 nM. A control using 5 mg bovine serum albumin (BSA) inside the bag was carried out. […] The brain fractions tested were also 5 mg by weight. Dialysis was carried out in the presence of the cocktail of protease inhibitors described supra present both inside and outside the bag. The experiment was terminated by taking representative aliquots from inside and outside the bag (in triplicate). The cpm were then adjusted for total volume.

“Also recorded” adds a separate entry of the source.

The source of these data is patent publication US5126432A, “Calcium channel modulating substances” (Miles Inc., priority 1988, dated 1992).

Take `COC(=O)C1=C(C)NC(C)=C([N+](=O)[O-])C1c1ccccc1C(F)(F)F` (stereo not drawn) [Bay K8644]: the “effect on calcium channel current” value in data set [1] is “increases calcium channel current; also recorded: can produce inhibition depending on the precise membrane potential and channel state”.

For the compound `[Cl-].[Na+]` [NaCl], the activity after ashing entry in data set [2] is on record as “maintained activity upon ashing”.

Regarding “bovine serum albumin: control in dialysis, 5 mg inside the bag”, in data set [3], the “binding of [3H]DHP ligand in dialysis” value is “bind [^3 H]DHP ligand hydrophobically”.
